Reference: ChEMBL document CHEMBL5375956, “Discovery of Pyrazolo[1,5-a]pyrimidine Derivative as a Novel and Selective ALKBH5 Inhibitor for the Treatment of AML” (J Med Chem, 2023)
Calls of active or inactive are those of the source. No cut-off for these calls is given here.

How the values were obtained:
RNA demethylase ALKBH5 = RNA demethylase ALKBH5 (Homo sapiens, UniProt Q6P6C2); experiment: Inhibition of ALKBH5 (66 to 292 residues)(unknown origin) expressed in Escherichia coli BL21(DE3) using 5'-ATTGTCA(m6A)CAGCAGA-FAM-3' as substrate incubated for 30 mins in presence of 20 uM of 2-OG by FP based competitive binding assay
Sequence of RNA demethylase ALKBH5 (Q6P6C2 whole entry, the tested form may be a part): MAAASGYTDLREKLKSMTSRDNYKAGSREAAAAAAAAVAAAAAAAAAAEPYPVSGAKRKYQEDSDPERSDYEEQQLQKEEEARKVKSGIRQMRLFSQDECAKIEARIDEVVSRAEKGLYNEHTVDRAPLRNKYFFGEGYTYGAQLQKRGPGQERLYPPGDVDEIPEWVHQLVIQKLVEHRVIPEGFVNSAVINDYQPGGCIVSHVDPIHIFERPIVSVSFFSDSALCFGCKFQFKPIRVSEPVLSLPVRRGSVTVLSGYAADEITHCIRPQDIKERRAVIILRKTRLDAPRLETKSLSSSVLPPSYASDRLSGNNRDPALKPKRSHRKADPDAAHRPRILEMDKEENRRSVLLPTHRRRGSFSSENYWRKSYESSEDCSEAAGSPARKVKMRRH

MOLM-13 = experiment: Induction of apoptosis in human MOLM-13 cells assessed as early apoptosis cells at 10 uM incubated for 48 hrs by Annexin V-FITC/PI staining based flow cytometry (reference value: 2.72 %); format: functional
HEK293 = experiment: Effect on c-Myc mRNA level in HEK293 cells at 5 to 10 uM incubated for 48 hrs by qRT-PCR analysis; format: functional, cell-based; settings: Homo sapiens, dose 5-10 µM
[1] = MRT in Sprague-Dawley rat at 10 mg/kg, po measured for 1 to 1440 mins by LC-MS/MS analysis; format: ADME, organism-based; settings: in vivo, time 1-1440 min
MV4-11 = experiment: Antitumor activity against human MV4-11 cells xenografted in nude mouse assessed as reduction in tumor weight at 10 to 40 mg/kg, ip treated every day for 14 days; format: functional, organism-based; settings: dose 10-40 mg/kg, time 14.0 day

**Q.** For `O=C(OCc1ccc(C(F)(F)F)cc1)c1ccc(-c2cc3ncc(C(=O)c4c(O)ccc([N+](=O)[O-])c4O)cn3n2)cc1`, which IC50 (RNA demethylase ALKBH5) is on record?
**A.** 4.32 µM

**Q.** What about the Activity (MOLM-13) of the same compound?
**A.** 2.88%

**Q.** And the Activity (HEK293)?
**A.** inactive

**Q.** And the MRT [1]?
**A.** 2.8 h

**Q.** What about the Activity (MV4-11) of the same compound?
**A.** Active
